Source: the supplement of paper PMC12137928

Legend:
HCT116 [1] = test: efficacy (maximum % inhibition of viability vs DMSO); higher = more cytotoxic; settings: 72 h
Outline: (§1)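 HCT116 cells were plated at 250 per well in 1536-well plates and allowed 5 h to attach. CellTiter-Glo luminescence was normalized to vehicle as 0% and positive control as -100%, followed by pattern correction. Four-parameter Hill fits provided IC50 and maximal efficacy.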

HCT116 [2] = settings: 72 h
Outline: as §1

Structure (SMILES)	IC50 cell viability (HCT116 [2]; ICRF193 0 nM)	IC50 cell viability (HCT116 [2]; ICRF193 200 nM)	efficacy (HCT116 [1]; ICRF193 0 nM)	efficacy (HCT116 [1]; ICRF193 200 nM)
C[C@]12Cc3nonc3C[C@@H]1CC[C@@H]1[C@@H]2CC[C@@]2(C)[C@H]1CC[C@]2(C)O [Furazabol]	18.3 µM	23.1 µM	46.7%	51.4%
COc1ccc(C(C)(C)C)cc1CN[C@H]1C2CCN(CC2)[C@H]1C(c1ccccc1)c1ccccc1 [Maropitant]	18.3 µM	18.3 µM	60.3%	96%
NS(=O)(=O)c1cc2c(cc1Cl)N=C(CSCc1ccccc1)NS2(=O)=O [Benzthiazide]	> 45.8 µM	29.1 µM		77%
C=C(C)[C@@H]1CCC(C)=C[C@H]1c1c(O)cc(CCCCC)cc1O [Cannabidiol]	20.6 µM	23.1 µM	52.9%	49.4%
O=C(O)c1c(Cl)c(Cl)c(Cl)c(Cl)c1-c1c2cc(I)c(=O)c(I)c-2oc2c(I)c(O)c(I)cc12 [Rose Bengal disodium]	16.4 µM	11.6 µM	74.2%	62.4%

Further lines, with some results ahead:

IC50 cell viability (HCT116 [2]; ICRF193 0 nM)	IC50 cell viability (HCT116 [2]; ICRF193 200 nM)	Structure (SMILES)	efficacy (HCT116 [1]; ICRF193 0 nM)	efficacy (HCT116 [1]; ICRF193 200 nM)
7.3 µM	3.66 µM	O=C(O)C[C@H](O)C[C@H](O)/C=C/c1c(C2CC2)nc2ccccc2c1-c1ccc(F)cc1 [Pitavastatin Calcium]	100%	110%
> 45.8 µM	18.3 µM	N#Cc1c(N2C[C@@H]3NCCO[C@H]3C2)c(F)cc2c(=O)c(C(=O)O)cn(C3CC3)c12 [Finafloxacin]		72.2%
0.92 µM	> 45.8 µM	C/C(=C\c1csc(C)n1)[C@@H]1C[C@@H]2O[C@]2(C)CCC[C@H](C)[C@H](O)[C@@H](C)C(=O)C(C)(C)[C@@H](O)CC(=O)N1 [Ixabepilone]	72.5%	
29.1 µM	18.3 µM	CCCSc1nc(N[C@@H]2C[C@H]2c2ccc(F)c(F)c2)c2nnn([C@@H]3C[C@H](OCCO)[C@@H](O)[C@H]3O)c2n1 [Ticagrelor]	77.1%	92.6%
16.4 µM	18.3 µM	CCN1CCN(Cc2ccc(Nc3ncc(F)c(-c4cc(F)c5nc(C)n(C(C)C)c5c4)n3)nc2)CC1 [Abemaciclib]	116%	112%
20.6 µM	0.92 µM	COC(=O)Nc1nc2cc(C(=O)c3ccccc3)ccc2[nH]1 [Mebendazole]	55.3%	61.9%
